# Data reported in patent publication US12594282B2, “Use of small molecule compounds in the treatment of diseases mediated by lung epithelial cell injury and/or vascular endothelial cell injury” (Guangzhou Cellprotek Pharmaceutical Co., Ltd., priority 2020, dated 2026).
# Tests used:
# [1] = system: Human umbilical vein endothelial cells (HUVEC); experiment: OGD-R injury model, LDH detection, HUVEC; format: cell-based; details: OGD 4 hours, restoration 24 hours, 1, 3, 10 μM, prophylactic (1 hour before OGD) or therapeutic (at restoration)
# Protocol: HUVEC cells were cultured in modified DMEM medium containing 10% fetal bovine serum. When the cells reached about 80% confluence, the cells were digested with 0.25% trypsin, and then pipetted evenly with modified DMEM containing 10% fetal bovine serum. The cell concentration was adjusted to 1×10^5 cells/mL, and the cells were seeded at 400 uL/well in a 24-well plate, and the experiment was carried out when the cells grew to about 70% confluence. RAOEC cells were cultured in high-glucose DMEM medium containing 10% fetal bovine serum, and the seeding conditions were the same as those for HUVECs.
# The hypoxia workstation was set to have an oxygen concentration of 1% (1% O2, 5% CO2, 94% N2), a temperature of 37° C., and a humidity of 85%. A sugar-free DMEM medium was placed in the hypoxia workstation for pre-hypoxia for 3 hours. The medium in the culture plate was aspirated, and the plate was washed twice with preheated sugar-free DMEM medium, and 100 uL of sugar-free DMEM medium was added to each well. […]
# At the end of the experiment, 50 uL of medium was taken from each well into a 96-well plate, and then cytotoxicity was detected according to the operating instructions of the LDH detection kit. The results were calculated as follows: […]
# NR4A3 mRNA = NR4A3 mRNA under OGD-R, RAOEC (real-time fluorescent quantitative PCR); format: cell-based, rat; details: 10 μM given at restoration
# Protocol: HUVEC cells were cultured in modified DMEM medium containing 10% fetal bovine serum. When the cells reached about 80% confluence, the cells were digested with 0.25% trypsin, and then pipetted evenly with modified DMEM containing 10% […]. The cell concentration was adjusted to 1×10^5 cells/mL, and the cells were seeded at 400 uL/well in a 24-well plate, and the experiment was carried out when the cells grew to about 70% confluence. RAOEC cells were cultured in high-glucose DMEM medium containing 10% fetal bovine serum, and the seeding conditions were the same as those of HUVEC. During the OGD-R injury treatment, the hypoxia workstation was set to have an oxygen concentration of 1% (1% O2, 5% CO2, 94% N2), a temperature of 37° C., and a humidity of 85%. A sugar-free DMEM medium was placed in the hypoxia workstation for pre-hypoxia for 3 hours. The medium in the culture plate was aspirated, and the plate was washed twice with preheated sugar-free DMEM medium, and 100 uL of sugar-free DMEM medium was added to each well. The culture plate was placed in the hypoxia workstation, and 300 uL of pre-hypoxic sugar-free DMEM medium was added to each well, and then the culture plate was placed in the hypoxia workstation for additional hypoxia for 4 hours. Restoration was then performed. […]
smiles,measurement,setting,value
"C[C@@]12CCCC1C1C[C@@H](O)[C@]3(O)C[C@@H](O)CC[C@]3(C)C1CC2 (stereo partly drawn) [YC-6, 5α-androst-3β,5,6β-triol]",OGD-R-induced increase in LDH release,[1],significantly reduced the OGD-R-induced increase in LDH release in a dose-dependent manner
same,transcription level of NR4A3 (relative mRNA expression),NR4A3 mRNA,did not significantly up-regulate the transcription level of NR4A3
